# Read-outs that look alike come from different tables or passages of the source.
# Experiments:
# CYP2C9*8 [1] = target: T1, CYP2C9*8 (Homo sapiens, UniProt P11712, R150H); conditions: cited from earlier work
# CYP2C9*8 [2] = target: T1, CYP2C9*8; parameters: host or cells: human subjects carrying the CYP2C9*8 allele (in vivo phenotyping); conditions: CYP2C9*8 allele, cited from earlier work
# [3] = Description: A total of 226 African American patients having demographic and clinical parameters as depicted in Table 1 were studied.
# Patients were enrolled from the pharmacist-managed anticoagulation clinics at the University of Illinois Medical Center at Chicago and at the University of Florida in Gainesville. […] Aquilante, C. […] Pharmacogenomics 8, 1535-44 (2007). Patients with a history of liver dysfunction or serum transaminase levels greater than 3 times the upper limit of normal were excluded.
# After obtaining written informed consent and authorization for medical record review, a buccal cell sample was collected for genetic analysis, as previously described. Andrisin, T. E., Humma, L. M. & Johnson, J. A. Collection of genomic DNA by the noninvasive mouthwash method for use in pharmacogenetic studies. Pharmacotherapy 22, 954-60 (2002). Demographic, clinical, and social history were assessed through patient interview and review of the medical record. This study was approved by the Institutional Review Board at each institution.
# Genomic DNA was isolated from buccal cells using a commercially available kit (PureGene,® Qiagen, Valencia, Calif.) according to kit manufacturer instructions. The CYP2C9 R144C (*2), […] (*3) and D360E (*5) alleles and VKORC1 −1639G>A genotype were determined as previously described. Aquilante, C. […] Clin Pharmacol Ther 79, 291-302 (2006); Hruska, M. W., Frye, R. F. & Langaee, T. Y. Pyrosequencing method for genotyping cytochrome P450 CYP2C8 and CYP2C9 enzymes. Clin Chem 50, 2392-5 (2004). The VKORC1 −4451A>C, 497G>T, and 3730A>G genotypes, and APOE 112C>T and 158C>T genotypes were determined by PCR and pyrosequencing. PCR and sequencing primers used were per Table 6.
# Prior to determination of additional genotypes, genomic DNA was amplified by the whole genome amplification (WGA) technique, using the REPLI-g midi kit (Qiagen). Dean, F. B. et al. Comprehensive human genome amplification using multiple displacement amplification. Proc Natl Acad Sci USA 99, 5261-6 (2002) The fidelity of amplification was verified by comparing genotypes for CYP2C9*2, *3, *5 and VKORC1 −1639G>A determined before and after WGA. […] Reed, M. R. & Coty, W. A. in Microarrays: Preparation, Detection Methods, Data Analysis, and Applications (eds. Dill, K., Liu, R. & Grodzinski, P.) 247-60 (Springer-Verlag/Kluwer, 2009). The CYP2C9*8 genotype was determined by bi-directional DNA sequencing at Agencourt Biosciences after uniplex PCR amplification performed by Osmetech Molecular Diagnostics.
# Data are expressed as numbers (percentages), mean±SD, or median (inter-quartile range). Height and weight were used to calculate body surface area (BSA). […] Hardy Weinberg Equilibrium (HWE) assumption was tested by χ^2 analysis. […] Dickmann, L. J. et al. Identification and functional characterization of a new CYP2C9 variant (CYP2C9*5) expressed among African Americans. Mol Pharmacol 60, 382-7 (2001); Allabi, A. C., Gala, J. L. & Horsmans, Y. CYP2C9, CYP2C19, ABCB1 (MDR1) genetic polymorphisms and phenytoin metabolism in a Black Beninese population. Pharmacogenet Genomics 15, 779-86 (2005); Blaisdell, J. et al. Discovery of new potentially defective alleles of human CYP2C9. Pharmacogenetics 14, 527-37 (2004) Carriers of a variant CYP2C9*8 allele were initially analyzed separately because of uncertainty regarding the functional effects of this allele.
smiles,measurement,setting,value
CCCCc1nc(Cl)c(CO)n1Cc1ccc(-c2ccccc2-c2nnn[nH]2)cc1 [Losartran],effect of *8 on in vivo metabolism,CYP2C9*8 [1],little effect
O=C1NC(=O)C(c2ccccc2)(c2ccccc2)N1 [phenytoin],urinary excretion of phenytoin metabolite,CYP2C9*8 [2]; clinical study,reduced urinary excretion
same,effect of *8 on in vivo metabolism,CYP2C9*8 [2]; in vivo,decreases in vivo metabolism
CC(=O)CC(c1ccccc1)c1c(O)c2ccccc2oc1=O (stereo not drawn) [warfarin],Median (IQR) dose,"[3]; APOE ε2/ε2, n=4",35.5 (34.3-38.9) mg/week
same,Median (IQR) dose,"[3]; APOE ε2/ε3, n=36",40.0 (30.0-49.7) mg/week
same,Median (IQR) dose,"[3]; APOE ε2/ε4, n=6",61.3 (38.4-70.0) mg/week
same,Median (IQR) dose,"[3]; APOE ε3/ε3, n=102",40.0 (32.1-52.5) mg/week
same,Median (IQR) dose,"[3]; APOE ε3/ε4, n=60",43.8 (32.4-56.3) mg/week
same,Median (IQR) dose,"[3]; APOE ε4/ε4, n=9",45.0 (40.0-52.5) mg/week
same,"warfarin dose, median (IQR)",[3]; APOE ε4 carriers,45.0 (33.1-56.3) mg/week
same,"warfarin dose, median (IQR)",[3]; APOE ε4 homozygotes,45.0 (40.0-52.5) mg/week
same,Median (IQR) dose,"[3]; CYP2C9 *1/*1, n=171",42.5 (35.0-56.3) mg/week
same,Median (IQR) dose,"[3]; CYP2C9 *1/*8 or *8/*8, n=24",34.4 (29.5-47.3) mg/week
same,Median (IQR) dose,"[3]; CYP2C9 *2, *3, *5, *6, or *11 allele, n=28",33.1 (28.0-40.0) mg/week
same,Median (IQR) dose,"[3]; CYP4F2 V433M M/M, n=3",37.5 (28.8-56.3) mg/week
same,Median (IQR) dose,"[3]; CYP4F2 V433M V/M, n=26",40.0 (35.3-51.9) mg/week
same,Median (IQR) dose,"[3]; CYP4F2 V433M V/V, n=194",41.6 (32.5-55.0) mg/week
same,Median (IQR) dose,"[3]; VKORC1 497T > G GG, n=1",36.0 — mg/week
same,Median (IQR) dose,"[3]; VKORC1 497T > G TG, n=16",35.0 (27.5-36.3) mg/week
same,Median (IQR) dose,"[3]; VKORC1 497T > G TT, n=208",42.0 (32.5-56.1) mg/week
same,Median (IQR) dose,"[3]; VKORC1 −1639G > A GA, n=33",35.0 (27.5-42.5) mg/week
same,Median (IQR) dose,"[3]; VKORC1 −4451C > A AA, n=3",28.0 (26.5-30.3) mg/week
same,Median (IQR) dose,"[3]; VKORC1 −4451C > A CA, n=22",42.5 (31.0-55.6) mg/week
same,Median (IQR) dose,"[3]; VKORC1 −4451C > A CC, n=200",40.0 (32.5-55.0) mg/week
same,Median (IQR) dose,"[3]; VKORC1.3730A > G AA, n=45",42.0 (32.5-55.0) mg/week
same,Median (IQR) dose,"[3]; VKORC1.3730A > G GA, n=121",42.0 (34.0-56.3) mg/week
same,Median (IQR) dose,"[3]; VKORC1.3730A > G GG, n=60",37.5 (30.0-47.5) mg/week
same,Average INR,"[3]; all patients (n = 226) on stable warfarin dose, mean ± SD",2.5 ± 0.3
same,Therapeutic warfarin dose,"[3]; all patients (n = 226), median (IQR)",40.0 (32.5-55.0) mg/week
same,"warfarin dose, median (IQR)","[3]; individuals with a CYP2C9*5, *6, *8, or *11 allele, n=40",35.0 mg/wk
same,"warfarin dose, median (IQR)",[3]; non-c4 homozygotes,40.0 (32.0-55.0) mg/week
same,"warfarin dose, median (IQR)",[3]; non-ε4 carriers,40.0 (32.0-52.5) mg/week
same,median daily warfarin dose,"[3]; study population, median (range)",5.7 mg
